{"source": "PubChem BioAssay AID1259409", "about": "(Chemical Carcinogenesis Research Information System (CCRIS), 2018)", "origin": "cited, not measured here", "system": "rodent chemically induced tumor inhibition, incidence and multiplicity", "experiment": "CCRIS tumor inhibitor studies", "details": "Promoter: NONE USED", "data": [{"smiles": "CC(=O)Nc1ccc(O)cc1", "values": [{"measurement": "tumour outcome (control, treated, inhibition, significance)", "setting": "Carcinogen: 4-(METHYLNITROSAMINO)-1-(3-PYRIDYL)-1-BUTANONE, 64091-91-4, Dose [Inhibitor]: 0, 1520 MMOL/KG BW/D IN DIET FOR DURATION OF STUDY BEGINNING 2 WK PRIOR TO CARCINOGEN TREATMENT (STUDY DURATION: 25 WK), Route [Inhibitor]: ORAL, Species: MOUSE, Strain/Sex: STRAIN-A/FEMALE, Target Tissue: Type of Lesion: LUNG:TUMOR, Dose [Carcinogen]: 2.2 MMOL/KG BW (TOTAL DOSE) ADMINISTERED IN DRINKING WATER FOR 7 WK", "value": "29/29 (100%), 25/25 (100%), 0%, not significant"}, {"measurement": "outcome", "setting": "Carcinogen: N-ETHYL-N-HYDROXYETHYLNITROSAMINE, 13147-25-6, Dose [Inhibitor]: 1.3% IN DIET BEGINNING 1 WK AFTER LAST CARCINOGEN TREATMENT AND CONTINUING THROUGH DURATION OF STUDY (STUDY DURATION: 32, Route [Inhibitor]: ORAL, Species: RAT, Strain/Sex: F344/MALE, Target Tissue: Type of Lesion: KIDNEY: ADENOCARCINOMA, Dose [Carcinogen]: 0.1% IN DRINKING WATER FOR 2 WK AT BEGINNING OF STUDY", "value": "0/23 (0%), 1/23 (4%), not significant"}, {"measurement": "tumour outcome (control, treated, inhibition, significance)", "setting": "Carcinogen: N-ETHYL-N-HYDROXYETHYLNITROSAMINE, 13147-25-6, Dose [Inhibitor]: 1.3% IN DIET BEGINNING 1 WK AFTER LAST CARCINOGEN TREATMENT AND CONTINUING THROUGH DURATION OF STUDY (STUDY DURATION: 32, Route [Inhibitor]: ORAL, Species: RAT, Strain/Sex: F344/MALE, Target Tissue: Type of Lesion: KIDNEY: ADENOMA, Dose [Carcinogen]: 0.1% IN DRINKING WATER FOR 2 WK AT BEGINNING OF STUDY", "value": "5/23 (22%), 15/27 (56%), -154%, p<0.01"}, {"measurement": "tumour outcome (control, treated, inhibition, significance)", "setting": "Carcinogen: N-ETHYL-N-HYDROXYETHYLNITROSAMINE, 13147-25-6, Dose [Inhibitor]: 1.3% IN DIET BEGINNING 1 WK AFTER LAST CARCINOGEN TREATMENT AND CONTINUING THROUGH DURATION OF STUDY (STUDY DURATION: 32, Route [Inhibitor]: ORAL, Species: RAT, Strain/Sex: F344/MALE, Target Tissue: Type of Lesion: LIVER: HEPATOCELLULAR CARCINOMA, Dose [Carcinogen]: 0.1% IN DRINKING WATER FOR 2 WK AT BEGINNING OF STUDY", "value": "11/23 (48%), 3/27 (11%), 77%, p<0.05"}]}, {"smiles": "OCC(S)CS", "note": "(configuration not stated)", "values": [{"measurement": "tumour outcome (control, treated, inhibition, significance)", "setting": "Carcinogen: TRANS-5-AMINO-3-[2-(5-NITRO-2-FURYL)VINYL]-1,2,4-OXADIAZOLE;SQL8506, 28754-68-9, Carcinogen: TRANS-5-AMINO-3-[2-(5-NITRO-2-FURYL)VINYL]-1,2,4-OXADIAZOLE;SQL8506, 28754-68-9, Dose [Inhibitor]: 80 MG/KG 18 HR BEFORE THE 1ST CARCINOGEN DOSE FOLLOWED BY ADDITIONAL INJECTIONS IMMEDIATELY BEFORE EACH DOSE OF CARCINOG, Route [Inhibitor]: INTRAPERITONEAL, Species: MOUSE, Strain/Sex: CD-1/FEMALE, Target Tissue: Type of Lesion: LYMPHOID TISSUE: NONTHYMIC LYMPHOMA, Dose [Carcinogen]: 1 G/KG 2/D FOR 5 D EVERY 4 WK FOR 3 COURSES OF TREATMENT", "value": "8/137 (6%), 1/26 (4%), 33%, not calculated"}, {"measurement": "tumour outcome (control, treated, inhibition, significance)", "setting": "Carcinogen: TRANS-5-AMINO-3-[2-(5-NITRO-2-FURYL)VINYL]-1,2,4-OXADIAZOLE;SQL8506, 28754-68-9, Carcinogen: TRANS-5-AMINO-3-[2-(5-NITRO-2-FURYL)VINYL]-1,2,4-OXADIAZOLE;SQL8506, 28754-68-9, Dose [Inhibitor]: 80 MG/KG 18 HR BEFORE THE 1ST CARCINOGEN DOSE FOLLOWED BY ADDITIONAL INJECTIONS IMMEDIATELY BEFORE EACH DOSE OF CARCINOG, Route [Inhibitor]: INTRAPERITONEAL, Species: MOUSE, Strain/Sex: CD-1/FEMALE, Target Tissue: Type of Lesion: LYMPHOID TISSUE: THYMIC LYMPHOMA, Dose [Carcinogen]: 1 G/KG 2/D FOR 5 D EVERY 4 WK FOR 3 COURSES OF TREATMENT", "value": "22/137 (16%), 4/26 (15%), 6%, not calculated"}, {"measurement": "tumour outcome (control, treated, inhibition, significance)", "setting": "Carcinogen: TRANS-5-AMINO-3-[2-(5-NITRO-2-FURYL)VINYL]-1,2,4-OXADIAZOLE;SQL8506, 28754-68-9, Carcinogen: TRANS-5-AMINO-3-[2-(5-NITRO-2-FURYL)VINYL]-1,2,4-OXADIAZOLE;SQL8506, 28754-68-9, Dose [Inhibitor]: 80 MG/KG 18 HR BEFORE THE 1ST CARCINOGEN DOSE FOLLOWED BY ADDITIONAL INJECTIONS IMMEDIATELY BEFORE EACH DOSE OF CARCINOG, Route [Inhibitor]: INTRAPERITONEAL, Species: MOUSE, Strain/Sex: CD-1/FEMALE, Target Tissue: Type of Lesion: STOMACH: SQUAMOUS CARCINOMA, Dose [Carcinogen]: 1 G/KG 2/D FOR 5 D EVERY 4 WK FOR 3 COURSES OF TREATMENT", "value": "60/137 (44%), 14/26 (54%), -23%, not calculated"}]}]}
